From the CheMixHub ionic liquid set
± gives the uncertainty stated by the source.

Assay: xn = mol fraction of the nth substance listed

CCCCCCCCCCCCCC[P+](CCCCCC)(CCCCCC)CCCCCC.N#Cc1nc[n-]c1C#N + COCCOCCOCCOCCOC
viscosity [mPa·s], 100 kPa
Details | 278.15 K | 283.15 K | 288.15 K | 293.15 K | 298.15 K | 303.15 K | 308.15 K | 313.15 K | 318.15 K | 323.15 K
x2 = 0.201 | 1051 ± 66 | 723 ± 41 | 507 ± 25 | 365 ± 16 | 269 ± 10 | 203 ± 6 | 156 ± 4 | 123 ± 3 | 98 ± 5 | 79 ± 5
x2 = 0.401 | 389 ± 17 | 283 ± 11 | 209 ± 7 | 158 ± 4 | 122 ± 3 | 97 ± 2 | 77 ± 1 | 63 ± 1 | – | –

CCCCCCCC[n+]1ccc2ccccc2c1.O=S(=O)([N-]S(=O)(=O)C(F)(F)F)C(F)(F)F + c1ccccc1
101 kPa
Details | viscosity [mPa·s]
298.15 K, x2 = 0 | 369 ± 25
298.15 K, x2 = 0.4679 | 67 ± 1.5
298.15 K, x2 = 0.673 | 10.93 ± 0.24
298.15 K, x2 = 0.7443 | 5.93 ± 0.13
308.15 K, x2 = 0.4679 | 40.99 ± 0.91
318.15 K, x2 = 0 | 108.7 ± 3.6
318.15 K, x2 = 0.332 | 47.7 ± 1.1
318.15 K, x2 = 0.5663 | 16.93 ± 0.37
328.15 K, x2 = 0.1505 | 50.4 ± 1.1
328.15 K, x2 = 0.332 | 31.8 ± 0.71
328.15 K, x2 = 0.673 | 4.75 ± 0.1
338.15 K, x2 = 0.673 | 3.83 ± 0.08
338.15 K, x2 = 0.8143 | 1.48 ± 0.03
348.15 K, x2 = 0.332 | 16.29 ± 0.36
348.15 K, x2 = 0.654 | 4.92 ± 0.11
348.15 K, x2 = 0.8961 | 0.49 ± 0.01

CC[n+]1ccn(C)c1.O=S(=O)([O-])C(F)(F)F + CC#N
viscosity [mPa·s], 100 kPa
Details | 298.15 K | 303.15 K | 308.15 K | 313.15 K | 318.15 K | 323.15 K
x1 = 0.3948 | 4.5 ± 1.4 | 4.1 ± 1.2 | 3.8 ± 1.1 | 3.5 ± 1 | – | –
x1 = 0.498 | 7.4 ± 2.2 | 6.6 ± 2 | 6 ± 1.8 | 5.4 ± 1.6 | 4.9 ± 1.5 | 4.4 ± 1.3
x1 = 0.595 | – | 9.5 ± 2.8 | 8.4 ± 2.5 | 7.5 ± 2.3 | 6.7 ± 2 | 6 ± 1.8
x1 = 0.6936 | – | – | – | – | 9.5 ± 2.8 | 8.3 ± 2.5
x1 = 0.9005 | 34 ± 10 | – | – | – | – | –
x1 = 1 | 46 ± 14 | 38 ± 11 | – | – | – | –

CNC=O + CC[n+]1ccn(C)c1.F[B-](F)(F)F
298 K, 101 kPa
Details | electrical conductivity [S/m]
x1 = 0.21 | 2.08 ± 0.17
x1 = 0.47 | 2.73 ± 0.22
x1 = 0.66 | 2.95 ± 0.24

CCc1n(S(=O)(=O)O)cc[n+]1S(=O)(=O)O.O=C([O-])C(F)(F)F + CO
electrical conductivity [S/m], 101 kPa
Details | 283.15 K | 293.15 K | 298.15 K | 313.15 K
x1 = 0.0052 | – | – | 1.51 ± 0.03 | –
x1 = 0.0255 | – | – | 3.08 ± 0.062 | –
x1 = 0.02551 | 3.57 ± 0.071 | 3.28 ± 0.066 | 3.08 ± 0.062 | 2.7 ± 0.054

CC[n+]1ccn(C)c1.O=S(=O)([O-])C(F)(F)F + F[P-](F)(F)(F)(F)F.[Li+]
101 kPa, x1 = 1
Details | electrical conductivity [S/m]
288.15 K | 0.605 ± 0.061
298.15 K | 0.859 ± 0.086
333.15 K | 2.24 ± 0.22

[Br-].[Li+] + CCCCCCCCn1cc[n+](C)c1.N#C[S-] + CN1CCCC1=O
298.15 K, 101 kPa
Details | viscosity [mPa·s]
x2 = 0, x1 = 0.02595 | 2.385 ± 0.029
x2 = 0, x1 = 0.05088 | 3.13 ± 0.037
x2 = 0, x1 = 0.07505 | 4.349 ± 0.05

CC1(C)CC(O)CC(C)(C)N1[O] + CC[N+](CC)(CC)CC.[Cl-] + O
323.15 K, 100 kPa, frequency 0.001 MHz
Details | electrical conductivity [S/m]
x1 = 0.091, x2 = 0.182 | 1.2 ± 0.1
x1 = 0.167, x2 = 0.167 | 0.61 ± 0.03
x1 = 0.2, x2 = 0 | 0.019 ± 0.001
x1 = 0.286, x2 = 0.143 | 0.16 ± 0.01

CCCCCCCCCCCCCC[P+](CCCCCC)(CCCCCC)CCCCCC.N#C[N-]C#N + COCCOCCOCCOCCOC
viscosity [mPa·s], 100 kPa
Details | 278.15 K | 283.15 K | 288.15 K | 293.15 K | 298.15 K | 303.15 K | 308.15 K | 313.15 K | 318.15 K | 323.15 K
x2 = 0 | 1750 ± 140 | 1210 ± 85 | 842 ± 54 | 603 ± 35 | 442 ± 23 | 331 ± 16 | 253 ± 11 | 196 ± 8 | 155 ± 5 | 124 ± 4
x2 = 0.099 | 1130 ± 78 | 794 ± 49 | 566 ± 32 | 413 ± 21 | 308 ± 14 | 234 ± 9 | 182 ± 7 | 143 ± 5 | 115 ± 3 | 93 ± 3
x2 = 0.203 | 708 ± 42 | 508 ± 27 | 370 ± 18 | 275 ± 12 | 209 ± 8 | 162 ± 5 | 128 ± 4 | 103 ± 3 | 83 ± 2 | 69 ± 2
x2 = 0.299 | 479 ± 25 | 348 ± 16 | 258 ± 10 | 195 ± 7 | 151 ± 5 | 119 ± 3 | 96 ± 2 | 78 ± 2 | 64 ± 1 | 54 ± 1
x2 = 0.501 | 160 ± 6 | 122 ± 3 | 95 ± 2 | 75 ± 2 | 61 ± 1 | – | – | – | – | –
x2 = 0.652 | 73 ± 1 | 57 ± 1 | – | – | – | – | – | – | – | –

O=C([O-])C(F)(F)F.O=S(=O)(O)n1cc[n+](S(=O)(=O)O)c1 + CC#N
101 kPa
Details | electrical conductivity [S/m]
278.15 K, x1 = 0.02551 | 1.83 ± 0.037
283.15 K, x1 = 0.02551 | 1.78 ± 0.036
288.15 K, x1 = 0.02551 | 1.62 ± 0.032
293.15 K, x1 = 0.02551 | 1.59 ± 0.032
298.15 K, x1 = 0.0052 | 0.305 ± 0.006
298.15 K, x1 = 0.0104 | 0.52 ± 0.01
298.15 K, x1 = 0.0155 | 0.949 ± 0.019
298.15 K, x1 = 0.0205 | 1.15 ± 0.023
298.15 K, x1 = 0.0255 | 1.54 ± 0.031
298.15 K, x1 = 0.02551 | 1.54 ± 0.031
298.15 K, x1 = 0.05 | 2.02 ± 0.04
303.15 K, x1 = 0.02551 | 1.27 ± 0.025
308.15 K, x1 = 0.02551 | 1.25 ± 0.025
313.15 K, x1 = 0.02551 | 1.25 ± 0.025
318.15 K, x1 = 0.02551 | 1.25 ± 0.025
323.15 K, x1 = 0.02551 | 0.803 ± 0.016
328.15 K, x1 = 0.02551 | 0.486 ± 0.01
333.15 K, x1 = 0.02551 | 0.401 ± 0.008

CC[n+]1ccn(C)c1.O=S(=O)([O-])C(F)(F)F + O=S(=O)([O-])C(F)(F)F.[Li+]
101 kPa, x1 = 1
Details | electrical conductivity [S/m]
288.15 K | 0.605 ± 0.061
298.15 K | 0.859 ± 0.086
333.15 K | 2.24 ± 0.22

CC(=O)CCC(=O)O + CCCC[N+](CCCC)(CCCC)CCCC.[Cl-]
Details | electrical conductivity [S/m] | viscosity [mPa·s]
293.15 K, 101.33 kPa, x2 = 0.3333 | – | 609 ± 24
298.15 K, 101.33 kPa, x2 = 0.3333 | – | 405 ± 14
303.15 K, 101.33 kPa, x2 = 0.3333 | – | 276 ± 9
308.15 K, 101.33 kPa, x2 = 0.3333 | – | 195 ± 6
313.15 K, 101.33 kPa, x2 = 0.3333 | – | 141 ± 4
318.15 K, 101.33 kPa, x2 = 0.3333 | – | 105 ± 3
323.15 K, 101.33 kPa, x2 = 0.3333 | – | 79 ± 2
328.15 K, 101.33 kPa, x2 = 0.3333 | – | 61 ± 2
333.15 K, 101 kPa, x1 = 0.75 | 0.177 ± 0.011 | 17.47 ± 0.73
333.15 K, 101.33 kPa, x2 = 0.3333 | – | 48 ± 1
338.15 K, 101.33 kPa, x2 = 0.3333 | – | 39 ± 1
343.15 K, 101 kPa, x1 = 0.75 | 0.238 ± 0.014 | –
343.15 K, 101.33 kPa, x2 = 0.3333 | – | 32 ± 1
348.15 K, 101.33 kPa, x2 = 0.3333 | – | 26 ± 1
353.15 K, 101.33 kPa, x2 = 0.3333 | – | 22 ± 1

CC[NH+](C)CC.CS(=O)(=O)[O-] + O + CC[NH+](C)CC.O=S(=O)([O-])C(F)(F)F
101 kPa, x2 = 0.121, x3 = 0
Details | viscosity [mPa·s]
313.15 K | 46.5 ± 3.3
333.15 K | 21.6 ± 1.5
353.15 K | 12.05 ± 0.85

CCCCCCCC[n+]1ccc2ccccc2c1.O=S(=O)([N-]S(=O)(=O)C(F)(F)F)C(F)(F)F + c1ccncc1
101 kPa
Details | viscosity [mPa·s]
308.15 K, x2 = 0.0945 | 155 ± 6.4
308.15 K, x2 = 0.8199 | 5.32 ± 0.11
328.15 K, x2 = 0 | 67.9 ± 1.6
328.15 K, x2 = 0.7274 | 4.82 ± 0.1
338.15 K, x2 = 0.0945 | 38.2 ± 0.88
338.15 K, x2 = 0.5383 | 10.76 ± 0.24
338.15 K, x2 = 0.8199 | 3.09 ± 0.07
348.15 K, x2 = 0.0945 | 26.97 ± 0.62

CC[N+](C)(CC)CCOC.F[B-](F)(F)F + CCCC[n+]1ccn(C)c1C.F[B-](F)(F)F
100 kPa
Details | electrical conductivity [S/m]
313.15 K, x1 = 0.4 | 0.289 ± 0.017
313.15 K, x1 = 0.7 | 0.302 ± 0.018
318.15 K, x1 = 0.2 | 0.318 ± 0.019
318.15 K, x1 = 0.4 | 0.361 ± 0.022
318.15 K, x1 = 0.5 | 0.369 ± 0.022
318.15 K, x1 = 0.8 | 0.41 ± 0.025
318.15 K, x1 = 1 | 0.437 ± 0.026
328.15 K, x1 = 0.1 | 0.492 ± 0.03
328.15 K, x1 = 0.2 | 0.502 ± 0.03
328.15 K, x1 = 0.5 | 0.555 ± 0.033
328.15 K, x1 = 0.9 | 0.682 ± 0.041
333.15 K, x1 = 0.5 | 0.685 ± 0.041
338.15 K, x1 = 0.4 | 0.772 ± 0.046
343.15 K, x1 = 0.4 | 0.913 ± 0.055
348.15 K, x1 = 0.6 | 1.14 ± 0.069
353.15 K, x1 = 0.2 | 1.18 ± 0.071
353.15 K, x1 = 0.3 | 1.21 ± 0.07
353.15 K, x1 = 0.4 | 1.24 ± 0.074
353.15 K, x1 = 0.5 | 1.27 ± 0.076
353.15 K, x1 = 0.7 | 1.38 ± 0.083
353.15 K, x1 = 1 | 1.62 ± 0.097
358.15 K, x1 = 0.3 | 1.39 ± 0.083
358.15 K, x1 = 0.4 | 1.42 ± 0.085
358.15 K, x1 = 0.8 | 1.61 ± 0.097
363.15 K, x1 = 0.5 | 1.67 ± 0.1
363.15 K, x1 = 1 | 2.1 ± 0.13

Cc1n(S(=O)(=O)O)cc[n+]1S(=O)(=O)O.O=C([O-])C(F)(F)F + CO
Details | electrical conductivity [S/m]
298.15 K, 101 kPa, x1 = 0.0104 | 1.52 ± 0.03
